Source: ChEMBL document CHEMBL4414645, “Development of Robust 17(R),18(S)-Epoxyeicosatetraenoic Acid (17,18-EEQ) Analogues as Potential Clinical Antiarrhythmic Agents” (J Med Chem, 2019)
Activity calls are given as the source filed them. No cut-off for these calls is given here.

Columns and labels:
[1] = tested on: Rattus norvegicus; experiment: Antiarrhythmic activity in Wistar rat model of coronary artery ligation-induced myocardial infarction assessed as reduction in disease severity score at 100 ug, iv administered via bolus pretreated for 10 mins followed by left anterior descending artery occlusion measured for 45 mins; format: functional, organism-based
[2] = Negative chronotropic activity in Wistar rat neonatal cardiomyocytes assessed as change in basal beating rate after 7 mins by inverted microscopic method; format: functional
[3] = Aqueous solubility of the compound in pH 7.4 potassium phosphate buffer at 2 mg after 1 to 24 hrs by RP-HPLC method; format: physicochemical
[4] = target: T1, Bifunctional epoxide hydrolase 2 (Homo sapiens) (UniProt P34913); conditions: Sf21, at 1 µM
T1 sequence (whole entry): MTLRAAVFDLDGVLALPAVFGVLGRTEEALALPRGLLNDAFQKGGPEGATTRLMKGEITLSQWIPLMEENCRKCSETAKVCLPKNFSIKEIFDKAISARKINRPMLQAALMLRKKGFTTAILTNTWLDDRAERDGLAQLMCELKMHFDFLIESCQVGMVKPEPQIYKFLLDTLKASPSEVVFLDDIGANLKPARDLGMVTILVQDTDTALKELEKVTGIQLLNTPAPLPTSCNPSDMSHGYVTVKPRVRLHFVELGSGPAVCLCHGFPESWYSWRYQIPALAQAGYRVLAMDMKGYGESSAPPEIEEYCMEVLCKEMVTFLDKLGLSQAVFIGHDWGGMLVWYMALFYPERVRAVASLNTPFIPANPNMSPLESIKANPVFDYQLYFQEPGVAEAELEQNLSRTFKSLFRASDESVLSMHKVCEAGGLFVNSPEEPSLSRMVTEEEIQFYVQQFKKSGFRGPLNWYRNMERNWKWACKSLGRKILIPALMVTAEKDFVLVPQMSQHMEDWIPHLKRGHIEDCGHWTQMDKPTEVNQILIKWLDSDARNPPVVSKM
Description: Inhibition of N-terminal His-tagged recombinant human soluble epoxide hydrolase (2 to 555 residues) expressed in Sf21 insect cells at 1 uM using as 14,15-EET as substrate after 10 mins by reversed-phase HPLC assay relative to control

[5] = target: T1, Bifunctional epoxide hydrolase 2 (Homo sapiens); experiment: Inhibition of N-terminal His-tagged recombinant human soluble epoxide hydrolase (2 to 555 residues) expressed in Sf21 insect cells at 10 uM using as 14,15-EET as substrate after 10 mins by reversed-phase HPLC assay relative to control
[6] = tested on: Rattus norvegicus; experiment: Antiarrhythmic activity in Wistar rat model of coronary artery ligation-induced myocardial infarction assessed as reduction in total time on development of ventricular tachycardia at 100 ug, iv administered via bolus pretreated for 10 mins followed by coronary artery ligation measured for 45 mins; format: functional, organism-based
[7] = target: T2, Cytochrome P450 2J2 (Homo sapiens, UniProt P51589); experiment: Inhibition of recombinant human CYP2J2 expressed in baculovirus infected insect cells co-expressing NADPH-CYP reductase and cytochrome b5 assessed as reduction in CYP2J2-mediated EPA epoxidation by measuring sum of EEQ and DiHETEs level at 1 to 50 uM using EPA as substrate preincubated for 5 mins followed by NADPH addition and measured after 15 mins by LCMS/MS analysis; format: ADME; conditions: recombinant enzyme, 0.25 h
T2 sequence (P51589 whole entry): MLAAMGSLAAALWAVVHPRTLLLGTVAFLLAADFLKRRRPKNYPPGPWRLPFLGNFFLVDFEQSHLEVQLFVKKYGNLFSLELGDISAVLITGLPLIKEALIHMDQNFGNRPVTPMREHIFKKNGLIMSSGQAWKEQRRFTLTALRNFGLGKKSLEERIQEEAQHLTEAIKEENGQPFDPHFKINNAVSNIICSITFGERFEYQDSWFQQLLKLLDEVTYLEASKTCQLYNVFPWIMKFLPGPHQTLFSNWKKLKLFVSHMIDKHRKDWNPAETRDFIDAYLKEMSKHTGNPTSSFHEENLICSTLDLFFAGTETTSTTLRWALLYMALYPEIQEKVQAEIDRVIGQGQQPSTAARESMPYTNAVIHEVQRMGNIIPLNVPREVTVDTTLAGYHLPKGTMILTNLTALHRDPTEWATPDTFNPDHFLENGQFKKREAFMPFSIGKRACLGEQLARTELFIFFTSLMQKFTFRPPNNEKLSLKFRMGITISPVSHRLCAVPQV

[8] = tested on: Cytochrome P450; experiment: Drug metabolism in human liver microsomes assessed as CYP450-mediated formation of [+O] metabolites at 1 uM after 60 mins in presence of NADPH by LC-MS analysis; format: ADME; conditions: 1 h
[9] = target: T3, Epoxide hydrolase 1/Bifunctional epoxide hydrolase 2 (Homo sapiens, UniProt P07099+P34913); experiment: Drug metabolism in human liver microsomes assessed as microsomal/soluble epoxide hydrolase mediated formation of [+O + H2O] metabolites at 1 uM after 60 mins in absence of NADPH by LC-MS analysis; format: ADME; conditions: 1 h
T3 sequence (P07099 whole entry): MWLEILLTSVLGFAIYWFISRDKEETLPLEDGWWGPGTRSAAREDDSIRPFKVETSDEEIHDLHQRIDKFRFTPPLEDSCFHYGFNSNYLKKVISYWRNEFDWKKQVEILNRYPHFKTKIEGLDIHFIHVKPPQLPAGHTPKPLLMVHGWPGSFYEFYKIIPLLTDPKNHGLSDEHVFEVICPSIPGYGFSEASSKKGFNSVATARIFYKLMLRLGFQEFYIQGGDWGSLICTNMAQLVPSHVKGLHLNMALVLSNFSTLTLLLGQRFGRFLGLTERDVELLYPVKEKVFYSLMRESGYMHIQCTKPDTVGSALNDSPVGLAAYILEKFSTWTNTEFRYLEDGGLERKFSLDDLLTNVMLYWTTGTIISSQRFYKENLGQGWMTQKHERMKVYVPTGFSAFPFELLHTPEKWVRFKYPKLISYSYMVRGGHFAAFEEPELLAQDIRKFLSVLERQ
T3 sequence (P34913 whole entry): T1 sequence (whole entry)

[10] = target: T3, Epoxide hydrolase 1/Bifunctional epoxide hydrolase 2; experiment: Drug metabolism in human liver microsomes assessed as microsomal/soluble epoxide hydrolase mediated formation of [+O + H2O] metabolites at 1 uM after 60 mins in presence of NADPH by LC-MS analysis; format: ADME; conditions: 1 h
[11] = tested on: Cytochrome P450; experiment: Drug metabolism in human liver microsomes assessed as CYP450-mediated formation of [+O] metabolites at 1 uM after 60 mins in absence of NADPH by LC-MS analysis; format: ADME; conditions: 1 h
[12] = Negative chronotropic activity in Wistar rat neonatal cardiomyocytes assessed as decrease in basal beating rate after 7 mins by inverted microscopic method; format: functional, cell-based
[13] = Negative chronotropic activity in Wistar rat neonatal cardiomyocytes assessed as changes to basal beating rate after 7 mins by inverted microscopic method; format: functional
[14] = Apparent permeability across basolateral to apical side in human Caco2 cells at 10 uM after 15 to 90 mins by LC-ESI-MS/MS analysis; format: ADME, cell-based; conditions: Caco-2
[15] = Apparent permeability across apical to basolateral side in human Caco2 cells at 10 uM after 15 to 90 mins by LC-ESI-MS/MS analysis; format: ADME, cell-based; conditions: Caco-2
[16] = Intrinsic clearance in human hepatocytes assessed per million cells at 1 uM measured up to 180 mins by LC-ESI-MS/MS analysis; format: ADME, cell-based, Hepatocyte; conditions: read-out: CLH
[17] = Half life in human hepatocytes at 1 uM measured up to 180 mins by LC-ESI-MS/MS analysis; format: ADME, cell-based, Hepatocyte
[18] = Stability in human plasma assessed as compound remaining at 10 uM measured up to 60 mins by LC-ESI-MS/MS analysis; format: ADME, cell-free; conditions: read-out: Stability

Row | SMILES | Activity [2] [bpm] | inhibition [4] [%] | inhibition [5] [%] | also measured
1 | CNC(=O)C(=O)NCCCC/C=C\CCCCCCCOCC(=O)OCCOCCOCCO | -25.2 | 1.3 | 1.9 | Activity [1]: Active; solubility [3]: Soluble; Activity [6]: Active
2 | CCCCc1oc2ccc(NS(C)(=O)=O)cc2c1C(=O)c1ccc(OCCCN(CCCC)CCCC)cc1 [DRONEDARONE] | – | – | – | inhibition (INH) [7]: Active
3 | CCCCc1oc2ccccc2c1C(=O)c1cc(I)c(OCCN(CC)CC)c(I)c1 [AMIODARONE] | – | – | – | inhibition (INH) [7]: Active
4 | CNC(=O)C(=O)NCCCC/C=C\CCCCCCCCCC(=O)N[C@@H](C)C(=O)[O-].[Na+] | -1.1 | 1.9 | 18.7 | –
5 | CNC(=O)C(=O)NCCCC/C=C\CCCCCCCCCSc1ccccc1O | -7.5 | 0.4 | 1.5 | –
6 | CCNC(=O)NCCCC/C=C\CCCCCCCCCC(=O)OCCOCCOCCO | -19.8 | 26.5 | 76.6 | solubility [3]: Soluble
7 | CNC(=O)C(=O)NCCCC/C=C\CCCCCCCCCS(=O)(=O)[O-].[Na+] | -20.7 | 5.2 | 0 | –
8 | CCCCCCCC/C=C\CCCCCCCC(=O)O [OLEIC ACID] | – | – | – | Drug metabolism [8]: Metabolite_Detected; Drug metabolism [9]: Metabolite_Notdetected; Drug metabolism [10]: Metabolite_Detected; Drug metabolism [11]: Metabolite_Notdetected
9 | CNC(=O)C(=O)NCCCC/C=C\CCCCCCCCCOc1cccc2sc(NC(C)=O)nc12 | -21.1 | 17 | 61.8 | –
10 | CNC(=O)C(=O)NCCCC/C=C\CCCCCCCCCP(=O)(OC)OCOC(=O)C(C)(C)C (configuration not stated) | -16.2 | 5.4 | 18.6 | –
11 | CNC(=O)C(=O)NCCCC/C=C\CCCCCCCCCC(=O)N(C)CC(=O)[O-].[Na+] | -15.6 | -0.6 | 17.8 | –
12 | CNC(=O)C(=O)NCCCC/C=C\CCCCCCCCCP(=O)(OCOC(=O)C(C)(C)C)OCOC(=O)C(C)(C)C | -23.5 | 5.1 | 38.4 | –
13 | CC[C@@H]1O[C@@H]1C/C=C\C/C=C\C/C=C\C/C=C\CCCC(=O)O | – | – | – | EC50 [12]: 12 nM; Emax [13]: 28.9 bpm
14 | CNC(=O)C(=O)NCCCC/C=C\CCCCCCCCCC(=O)NS(=O)(=O)c1ccccc1 | -23.1 | -3.2 | 1.1 | –
15 | CC[C@H]1OC(=O)[C@H](C)[C@@H](O[C@H]2C[C@@](C)(OC)[C@@H](O)[C@H](C)O2)[C@H](C)[C@@H](O[C@@H]2O[C@H](C)C[C@H](N(C)C)[C@H]2O)[C@](C)(O)C[C@@H](C)C(=O)[C@H](C)[C@@H](O)[C@]1(C)O [ERYTHROMYCIN] | – | – | – | Papp B→A at 10 µM [14]: 10.4 ×10⁻⁶ cm/s; Papp A→B at 10 µM [15]: 0.35 ×10⁻⁶ cm/s
16 | CNC(=O)C(=O)NCCCC/C=C\CCCCCCCCCC1=NO[S+]([O-])N1 (configuration not stated) | -24.3 | -0.2 | 10 | –
17 | CNC(=O)C(=O)NCCCCc1ccccc1CCCCCCCCCP(=O)([O-])[O-].[Na+].[Na+] | -21.8 | 1.3 | 1.8 | –
18 | CNC(=O)C(=O)NCCCc1ccccc1CCCCCCP(=O)([O-])[O-].[Na+].[Na+] | -24.5 | -1 | -2.2 | –
19 | CCOc1ccc2ccc(=O)oc2c1 [ETHOXYCOUMARIN] | – | – | – | hepatocyte CLint at 1 µM [16]: 43.2 µL/min/1e6 cells; half-life at 1 µM [17]: 20.5 min
20 | C[C@]12CC[C@H]3[C@@H](CCC4=CC(=O)CC[C@@]43C)[C@@H]1CC[C@@H]2O [TESTOSTERONE] | – | – | – | Papp B→A at 10 µM [14]: 58.9 ×10⁻⁶ cm/s; Papp A→B at 10 µM [15]: 32.5 ×10⁻⁶ cm/s
21 | CNC(=O)C(=O)NCCCC/C=C\CCCCCCCCCP(=O)([O-])[O-].[Na+].[Na+] | -21.3 | 6.8 | 37.7 | –
22 | CC(C)(C)c1ccc(C(O)CCCN2CCC(C(O)(c3ccccc3)c3ccccc3)CC2)cc1 (configuration not stated) [TERFENADINE] | – | – | – | inhibition (INH) [7]: Active
23 | CC(C)[N+](C)(CCOC(=O)C1c2ccccc2Oc2ccccc21)C(C)C [PROPANTHELINE BROMIDE] | – | – | – | remaining at 1 h, 10 µM [18]: 2.6%
24 | CCNC(=O)NCCCC/C=C\CCCCCCCCCC(=O)NCC(=O)[O-].[Na+] | -21.1 | 0.9 | 19.2 | solubility [3]: Soluble
25 | CNC(=O)C(=O)NCCCC/C=C\CCCCCCCCCP(=O)(OC)OC | -18 | 5 | 6.4 | –
26 | CNC(=O)C(=O)NCCCC/C=C\CCCCCCCCCc1noc(=O)[nH]1 | -11 | -5 | -9.2 | –
27 | CCNC(=O)NCCCC/C=C\CCCCCCCCCC(=O)O | – | 4.7 | 23.4 | –
28 | CCNC(=O)NCCCC/C=C\CCCCCCCOCC(=O)O | -38 | 3.6 | 10.4 | –
